Legend:
[1] = test system: Triticum aestivum; test: Drought stress in vivo analysis, efficacy EF from visually scored damage intensity; conditions: scored after recovery phase
Protocol: (§1) Seeds of monocotyledonous and dicotyledonous crop plants were sown in sandy loam in wood-fiber or plastic pots, covered with soil or sand and cultivated in a greenhouse under good growth conditions. The trial plants were treated at the early leaf stage (BBCH10-BBCH13). To assure uniform water supply before commencement of stress, the potted plants were supplied with water by dam irrigation prior to substance application. The inventive compounds formulated in the form of wettable powders (WP) were sprayed onto the green parts of the plants as an aqueous suspension at an equivalent water application rate of 600 I/ha with addition of 0.2% wetting agent (e.g. agrotin). Substance application was followed immediately by stress treatment of the plants. For this purpose, the wood-fiber pots were transferred in plastic inserts in order to prevent them from subsequently drying out too quickly. Drought Stress was Induced by Gradual Drying Out Under the Following Conditions: “Day”: 14 hours with illumination at ˜26-30° C. “Night”: 10 hours without illumination at ˜18-20° C. The duration of the respective stress phases was guided mainly by the condition of the stressed control plants. It was ended (by re-irrigating and transfer to a greenhouse with good growth conditions) as soon as irreversible damage was observed on the stressed control plants. The end of the stress phase was followed by an about 4-7-day recovery phase, during which the plants were once again kept under good growth conditions in a greenhouse. The duration of the recovery phase was guided mainly by when the trial plants had attained a state which enabled visual scoring of potential effects, and is therefore variable. Once this juncture was reached, the intensities of damage were scored visually in comparison to untreated, unstressed controls of the same age. The damage intensity was at first assessed in percent. These values were then used to calculate the efficacy of the test compounds by the following formula: [formula] EF: Efficacy DIs: Damage intensity of the stressed control plants DIh: Damage intensity of the stressed plants treated with test compound The values reported in tables A-1 to A-3 below are mean values from at least one trial with at least two repeats. The effects of selected compounds of the general formula (I) under drought stress on various crop plants were measured. BRSNS=Brassica napus ZEAMX=Zea mays TRZAS=Triticum aestivum

[2] = test system: Zea mays; test: as above; conditions: scored after recovery phase
Protocol: as §1

[3] = test system: Brassica napus; test: as above; conditions: spray 250 g/ha, scored after recovery phase
Protocol: as §1

[4] = test system: Brassica napus; test: Drought stress in vivo analysis Part B, appearance vs stressed control plants in categories; parameters: key: 0: no positive effect; +: slight positive effect; ++: clear positive effect; +++: strong positive effect
Protocol: (§2) Seeds of monocotyledonous and dicotyledonous crop plants were sown in sandy loam in plastic pots, covered with soil or sand and cultivated in a greenhouse under good growth conditions. The test plants are treated at the early leaf stage (BBCH10-BBCH13). To assure uniform water supply before commencement of stress, the potted plants were supplied with water by dam irrigation prior to substance application. The inventive compounds were first formulated as wettable powders (WP) or dissolved in a solvent mixture. The further dilution was effected with water supplemented with 0.2% wetting agent (e.g. agrotin). The finished spray liquor was sprayed onto the green parts of the plant at an equivalent water application rate of 600 I/ha. Substance application was followed immediately by stress treatment of the plants. Drought Stress was Induced by Gradual Drying Out Under the Following Conditions: “Day”: 14 hours with illumination at […]-30° C. “Night”: 10 hours without illumination at 18-20° C. The duration of the respective stress phases was guided mainly by the condition of the stressed control plants. It was ended (by re-irrigating and transfer to a greenhouse with good growth conditions) as soon as irreversible damage was observed on the stressed control plants. The end of the stress phase was followed by an about 4-7-day recovery phase, during which the plants were once again kept under good growth conditions in a greenhouse. The duration of the recovery phase was guided mainly by when the trial plants had attained a state which enabled visual scoring of potential effects, and was therefore variable. Once this juncture had been reached, the appearance of the plants treated with test substances was recorded in comparison to the stressed control plants by the following categories: [table] In order to rule out any influence on the effects observed by any fungicidal or insecticidal action of the test compounds, it was additionally ensured that the tests proceeded without fungal infection or insect infestation. The values reported in tables B-1 and […] below are mean values of the results from at least three repeats. Effects of selected compounds of the general formula (I) under drought stress according to the following tables B-1 and B-2: BRSNS=Brassica napus ZEAMX=Zea mays TRZAS=Triticum aestivum

[5] = test system: Triticum aestivum; test: as above; parameters: key: 0: no positive effect; +: slight positive effect; ++: clear positive effect; +++: strong positive effect
Protocol: as §2

Row | SMILES | Effect (TRZAS) ([5]; spray 250 g/ha) | Effect (BRSNS) ([4]; spray 250 g/ha) | further results
1 | CN(C)N(Cc1ccccn1)C(=O)c1ccsc1 [Compound B2-21] |  |  | EF [%] (TRZAS) ([1]; spray 25 g/ha): >5%; EF [%] (ZEAMX) ([2]; spray 250 g/ha): >5%
2 | CN(C)N(Cc1ccccc1C#N)C(=O)c1ccsc1 [Compound B2-61] |  |  | EF [%] (BRSNS) [3]: >5%; EF [%] (TRZAS) ([1]; spray 20 g/ha): >5%; EF [%] (ZEAMX) ([2]; spray 250 g/ha): >5%
3 | Cc1nc(-c2cccnc2)sc1C(=O)N(Cc1ccccc1Cl)N(C)C [Compound D1-1] | + |  | Effect (BRSNS) ([4]; spray 25 g/ha): +
4 | CNN(Cc1ccccc1Cl)C(=O)c1c(C(F)F)nn(C)c1F [Compound A22-1] | + | + | 
5 | CCn1nc(C(F)F)c(C(=O)N(Cc2nccc(Cl)c2Cl)N2CCCC2)c1F [Compound A24-40] | + | + | 
6 | O=C(c1cnsn1)N(Cc1cccc(Cl)c1Cl)N1CCCC1 [Compound H2-4] | + | + | 
7 | CN(C)N(Cc1ccccc1Cl)C(=O)c1ccsc1 [Compound B2-1] |  |  | EF [%] (TRZAS) ([1]; spray 250 g/ha): >5%; EF [%] (ZEAMX) ([2]; spray 25 g/ha): >5%
8 | COc1cc(OC)nc(CN(C(=O)c2c(C(F)F)nn(C)c2F)N(C)C)n1 [Compound A5-30] |  |  | EF [%] (ZEAMX) ([2]; spray 25 g/ha): >5%
9 | CN(C)N(Cc1ccccc1Cl)C(=O)c1ccns1 [Compound G8-1] | + | + | 
10 | CC(C)c1nnsc1C(=O)N(Cc1ccccc1C#N)N(C)C [Compound F2-61, 4-Isopropyl-N′,N′-dimethyl-N-(2-cyanobenzyl)-1,2,3-thiadiazole-5-carbohydrazide] | + | + | 
11 | O=C(c1ccns1)N(Cc1ccccc1F)N1CCCC1 [Compound G9-11] | + | + | 
12 | Cc1c(OCc2ccccc2)nsc1C(=O)N(Cc1cccc(Cl)c1Cl)N(C)C [Compound G11-4] | + | ++ | 
13 | O=C(c1ccns1)N(Cc1ncc(C(F)(F)F)cc1Cl)N1CCCC1 [Compound G9-36] |  | ++ | Effect (TRZAS) ([5]; spray 25 g/ha): +
14 | CN(C)N(Cc1ccccn1)C(=O)c1c(C(F)F)nn(C)c1Cl [Compound A6-21, 5-Chloro-3-(difluoromethyl) —N′,N′,1-trimethyl-N-(pyridin-2-ylmethyl)-1H-pyrazole-4-carbohydrazide] |  |  | EF [%] (BRSNS) [3]: >5%; EF [%] (ZEAMX) ([2]; spray 250 g/ha): >5%
15 | O=C(c1cnsn1)N(Cc1ccc(Cl)nc1)N1CCCC1 [Compound H2-94] | + | + | 
16 | CN(C)N(Cc1ccccc1C#N)C(=O)c1c(C(F)(F)F)nn(C)c1F [Compound A2-61] |  |  | Effect (BRSNS) ([4]; spray 25 g/ha): ++; Effect (TRZAS) ([5]; spray 25 g/ha): +
17 | CN(C)N(Cc1ccccc1C#N)C(=O)c1ccco1 [Compound C1-61] |  |  | EF [%] (ZEAMX) ([2]; spray 250 g/ha): >5%
18 | CN(C)N(Cc1ccc(F)cc1F)C(=O)c1c(C(F)(F)F)nn(C)c1Cl [Compound A1-15] |  |  | Effect (BRSNS) ([4]; spray 25 g/ha): ++; Effect (TRZAS) ([5]; spray 25 g/ha): +
